US11311632B2, “Viral vectors for prophylaxis and therapy of hemoglobinopathies” (Cornell University, priority 2015, dated 2022)
Like-named read-outs stand apart in the source and are kept apart here.

Assays:
[1] = test system: CD34+-derived SCD erythroid cells; experiment: Hemoglobin (HbF, HbS, HbA2) content by HPLC in differentiated CD34+-derived SCD erythroid cells; type: cell-based, human
Description: To obtain the data presented here, we used the lentiviral vector pCL-ZF-Ldb1, (FIG. 11, top vector map), which carries a zinc-finger protein that specifically binds the γ-globin promoters, fused to the self-association (SA) domain of Ldb1, as well as a green fluorescent protein under the control of the erythroid specific ankyrin promoter. […] Cell, 2014. 158(4): p. 849-60].
In particular, we analyzed the mRNA and protein content of erythroblasts derived from 10 SCD subjects. CD34+ cells isolated from peripheral blood mononuclear cells (PBMCs) were frozen and used for independent replicate experiments. Infection with pCL-ZF-Ldb1 was performed on pro-erythroblast within the first 10 days of the expansion phase.
A scheme of the experimental procedures is illustrated in FIG. 16. […] Exp Hematol, 2005. 33(12): p. […] J Clin Invest, 2008. 118(1): p. […] Nat Med, 2013. 19(3): p. 291-4]. Studies were performed on day 8 of differentiation phase, at the orthochromatophilic stage when high amounts of hemoglobin were accumulated.
(§1) CD34+ cells selection from blood samples was performed by immunomagnetic separation, using the CD34 microbeads kit (Miltenyi Biotec Inc., Auburn, Calif.). These cells were then expanded following a modified version of the protocol described by Leberbauer and colleagues. Cells were seeded in 5 mL of serum-free StemSpan with 50 μL of StemSpan CC-100 cytokine cocktail (both from Stemcell Technologies, Vancouver, BA, Canada), 2 U/mL Erytrhopoietin (Amgen, Thousand Oaks, Calif.), 10^-6 M dexamethasone (Sigma) and 1% penicillin streptomycin. CD34+ cultures were kept undifferentiated by refreshing the medium twice a week and density gradient centrifugation was used to remove both dead and spontaneously differentiating cells. At this stage cells were either frozen (with 50% characterized Hyclone FBS, 10% DMSO, Sigma, and 40% Iscove's Modified DMEM, Cellgro), or used for experiments. After 10 days in phase I, cells were transferred into phase II media containing α-modified essential medium supplemented with 30% fetal calf serum and 10^-5 M β-mercaptoethanol. Erythropoietin was added (5 U/mL) to stimulate erythroid differentiation.

[2] = test system: SCD erythroblasts; experiment: Erythroid cell count / viability (benzidine+ cells) of treated SCD erythroblasts; conditions: same treatments and doses as HbF induction comparison
Procedure: as §1

[3] = SCD erythroid cells, summary in description
[4] = day 8 of differentiation, same treatments and doses as net HbF increase

SMILES | induction of HbF (qualitative summary) [1] | net HbF increase [1] | net HbS decrease [1] | induction of HbF (qualitative summary) [1, 3] | net HbS decrease [1, 4] | viability compared to untreated samples [2] | net HbS decrease ([1]; 192 h) | net HbF increase ([1]; 192 h, 30 µM)
N[C@@H]1C[C@H]1c1ccccc1 (racemic) [tranyl-cypromine, tranylcypromine] | intermediate effect | 8.08%±6.28 | −6.93%±6.64 | – | – | – | – | –
CCCC(=O)[O-].[Na+] [butyrate, sodium butyrate] | – | 4.84%±5.03 | – | marginal HbF induction | −4.90%±7.94 | reduced viability | – | –
NC(=O)NO [hydroxyurea] | – | – | – | marginal HbF induction | −3.48%±4.68 | reduced viability | – | –
Nc1cccc2c1C(=O)N(C1CCC(=O)NC1=O)C2=O (stereo not shown) [pomalidomide] | – | – | – | – | – | reduced viability | 11.61−%±9.27 | 11.84%±9.02
